Where two headings read alike, the source gives them in different places.
Columns and labels:
[1] = system: acute HIV infection of T-lymphoid cells; experiment: Assay for inhibition of HIV replication (spread assay); assay type: cell-based, HIV-1; details: read-out: Spread - IC95
Protocol: • Assay for Inhibition of HIV Replication
Assays for the inhibition of acute HIV infection of T-lymphoid cells were conducted in accordance with Vacca, J. P. et al., Proc. Natl. Acad. Sci. USA 1994, 91: 4096.

wild-type HIV-1 protease = wild-type HIV-1 protease (Human immunodeficiency virus type 1 group M subtype B, UniProt P04585); experiment: Assay for inhibition of microbial expressed HIV protease; assay type: biochemical
Protocol: Assay for Inhibition of Microbial Expressed HIV Protease
Inhibition studies of the reaction of the protease (which was expressed in Eschericia coli) with a peptide substrate [Val-Ser-Gln-Asn-(betanapthyl)Ala-Pro-Ile-Val]. The inhibitor is first preincubated with the enzyme in assay buffer (50 mM sodium acetate, pH 5.5, 100 mM NaCl, and 0.1% BSA) for 30 minutes at room temperature. Substrate is added to 440 micromolar in a total volume of 80 microliters containing 5 picomolar HIV-1 protease, and the reaction is incubated for 1 hour at 30° C. The reaction is quenched by addition of 120 microliters of 10% phosphoric acid, and product formation is determined after separation of product and substrate on a Vydac C18 column connected to an Alliance high performance liquid chromatography system (Waters Corporation). The extent of inhibition of the reaction is determined from the peak area of the products.

[2] = Human immunodeficiency virus 1, T-lymphoid
[3] = wild-type HIV-1 protease expressed in E. coli, peptide substrate, pH 5.5, read-out: Enzyme Inhibition - IC50
[4] = inhibition of HIV-1 replication, 10% FBS

**Q.** Which results are given for `COC(=O)N[C@@H](Cc1ccccc1Cl)C(=O)N[C@H](CCC[C@@H](CO)N(CCC(C)C)S(=O)(=O)c1ccc2ncsc2c1)C1CC1` [Example E8, N-{(1R,5S)-5-[(1,3-benzothiazol-6-ylsulfonyl)(3-methylbutyl)amino]-1-cyclopropyl-6-hydroxyhexyl}-2-chloro-Nα-(methoxycarbonyl)-L-phenylalaninamide]?
**A.** IC95 [1, 2]: 195 nM; IC50 (wild-type HIV-1 protease; [3]): 1.4 nM

**Q.** What does the source list for `CC[C@@H](CCC[C@@H](CO)N(CCC(C)C)S(=O)(=O)c1ccc(N)c(Br)c1)NC(=O)[C@@H](NC(=O)OC)C(c1ccccc1)c1ccccc1` [Example D17, N-{(1S,5S)-5-[[(4-amino-3-bromophenyl)sulfonyl](3-methylbutyl)amino]-1-ethyl-6-hydroxyhexyl}-Nα-(methoxycarbonyl)-β-phenyl-L-phenylalaninamide]?
**A.** IC95 [1, 2]: 154 nM; IC50 (wild-type HIV-1 protease; [3]): 0.38 nM

**Q.** `COC(=O)N[C@H](C(=O)N[C@H](CCC[C@@H](CO)N(CCC(C)C)S(=O)(=O)c1ccc(CO)cc1)C(C)(C)C)C(c1ccccc1)c1ccccc1` [Example J6, N-{(1R,5S)-1-tert-butyl-6-hydroxy-5-[{[4-(hydroxymethyl)phenyl]sulfonyl}(3-methylbutyl)amino]hexyl}-Nα-(methoxycarbonyl)-β-pbenyl-L-phenylalaninamide] was tested. Which IC95 [1, 2] did it give?
**A.** 327 nM

**Q.** And the IC50 (wild-type HIV-1 protease; [3])?
**A.** 0.976 nM

**Q.** Which results are given for `CCN([C@H](CO)CCC[C@H](C)NC(=O)[C@@H](NC(=O)OC)C(c1ccccc1)c1ccccc1)S(=O)(=O)c1ccc(N)cc1` [Example G5, N-{(1S,5S)-5-[[(4-aminophenyl)sulfonyl](ethyl)amino]-6-hydroxy-1-methylhexyl}-Nα-(methoxycarbonyl)-β-phenyl-L-phenylalaninamide]?
**A.** IC95 [1, 2]: 64 nM; IC50 (wild-type HIV-1 protease; [3]): 0.378 nM

**Q.** With `COC(=O)N[C@H](C(=O)N[C@H](CCC[C@@H](CO)N(CCC(C)C)S(=O)(=O)c1ccc(N)cc1)C(F)(F)F)C(c1ccccc1)c1ccccc1` [Example H2, N-[(1R,5S)-5-[[(4-aminophenyl)sulfonyl](3-methylbutyl)amino]-6-hydroxy-1-(trifluoromethyl)hexyl]-Nα-(methoxycarbonyl)-β-phenyl-L-phenylalaninamide] as the compound, how does the IC95 [1, 2] read?
**A.** 4 nM

**Q.** What about the IC50 (wild-type HIV-1 protease) of the same compound?
**A.** 0.01 nM

**Q.** What does the source list for `COC(=O)N[C@H](C(=O)N[C@H](C)CCC[C@@H](CO)N(CCC(C)C)S(=O)(=O)c1ccc(CO)cc1)C(c1ccccc1)c1ccccc1` [Example J5, N-{(1R,5S)-6-hydroxy-5-[{[4-(hydroxymethyl)phenyl]sulfonyl}(3-methylbutyl)amino]-1-methylhexyl}-Nα-(methoxycarbonyl)-β-phenyl-L-phenylalaninamide]?
**A.** IC95 [1, 2]: 192 nM; IC50 (wild-type HIV-1 protease; [3]): 0.291 nM

**Q.** What does the source list for `COC(=O)N[C@H](C(=O)NC(CO)CCCC(CO)N(CCC(C)C)S(=O)(=O)c1ccc(N)cc1)C(c1ccccc1)c1ccccc1` (single isomer, unassigned) [Example M1-7B, N-[(1R or 1S, 5R or 5S)-5-[[(4-aminophenyl)sulfonyl](3-methylbutyl)amino]-6-hydroxy-1-(hydroxymethyl)hexyl]-Nα-(methoxycarbonyl)-β-phenyl-L-phenylalaninamide]?
**A.** IC95 [1, 4]: 230 nM; IC50 (wild-type HIV-1 protease; [3]): 0.013 nM

**Q.** `CN[C@H](C(=O)N[C@H](CCC[C@@H](CO)N(CCC(C)C)S(=O)(=O)c1ccc(CO)cc1)C1CC1)C(c1ccccc1)c1ccccc1` [Example J28, N-{(1R,5S)-1-cyclopropyl-6-hydroxy-5-[{[4-(hydroxymethyl)phenyl]sulfonyl}(3-methylbutyl)amino]hexyl}-Nα-methyl-β-phenyl-L-phenylalaninamide] was tested. Which IC95 [1, 2] did it give?
**A.** 8 nM

**Q.** And the IC50 (wild-type HIV-1 protease; [3])?
**A.** 0.01 nM

**Q.** `COC(=O)N[C@H](C(=O)NCCCC[C@@H](CN)N(CCC(C)C)S(=O)(=O)c1ccc(N)cc1)C(c1ccccc1)c1ccccc1` [Example A2, Methyl [(1S)-2-({6-amino-5-[[(4-aminophenyl)sulfonyl](3-methylbutyl)amino]-hexyl)amino)-1-(diphenylmethyl)-2-oxoethyl]carbamate] was tested. Which IC95 [1, 2] did it give?
**A.** 252 nM

**Q.** What about the IC50 (wild-type HIV-1 protease; [3]) of the same compound?
**A.** 5 nM

**Q.** What does the source list for `COC(=O)N[C@H](C(=O)N[C@H](CCC[C@@H](CO)N(CCC(C)C)S(=O)(=O)c1ccc(CO)cc1)C1CC1)C(c1ccccc1)c1ccccc1` [Example J8, N-{(1R,5S)-1-cyclopropyl-6-hydroxy-5-[{[4-(hydroxymethyl)phenyl]sulfonyl}(3-methylbutyl)amino]hexyl}-Nα-(methoxycarbonyl)-β-phenyl-L-phenylalaninamide]?
**A.** IC95 [1, 2]: 10 nM; IC50 (wild-type HIV-1 protease; [3]): 0.015 nM

**Q.** How did the IC95 [1, 2] turn out when `CC[C@@H](CCC[C@@H](CO)N(CC(C)C)S(=O)(=O)c1ccc(CO)cc1)NC(=O)[C@@H](NC(=O)OC)C(c1ccc(F)cc1)c1ccc(F)cc1` [Example J20, N-{(1S,5S)-1-ethyl-6-hydroxy-5-[{[4-(hydroxymethyl)phenyl]sulfonyl}(isobutyl)amino]hexyl}-4-fluoro-β-(4-fluorophenyl)-Nα-(methoxycarbonyl)-L-phenylalaninamide] was run?
**A.** 50 nM

**Q.** What about the IC50 (wild-type HIV-1 protease; [3]) of the same compound?
**A.** 0.02 nM

**Q.** Which results are given for `COC(=O)N[C@H](C(=O)N[C@@H](C)CCC[C@@H](CO)N(C1CCC1)S(=O)(=O)c1ccc(CO)cc1)C(c1ccccc1)c1ccccc1` [Example G17, N-[(1S,5S)-5-(cyclobutyl{[4-(hydroxymethyl)phenyl]sulfonyl}amino)-6-hydroxy-1-methylhexyl]-Nα-(methoxycarbonyl)-β-phenyl-L-phenylalaninamide]?
**A.** IC95 [1, 2]: 137 nM; IC50 (wild-type HIV-1 protease; [3]): 0.077 nM

**Q.** Which results are given for `COC(=O)N[C@H](C(=O)N[C@@H](C)CCC[C@@H](CO)N(CCCF)S(=O)(=O)c1ccc(N)cc1)C(c1ccccc1)c1ccccc1` [Example F4, N-{(1S,5S)-5-[[(4-aminophenyl)sulfonyl](3-fluoropropyl)amino]-6-hydroxy-1-methylhexyl}-Nα-(methoxycarbonyl)-β-phenyl-L-phenylalaninamide]?
**A.** IC95 [1, 2]: 65 nM; IC50 (wild-type HIV-1 protease; [3]): 0.055 nM

**Q.** `COC(=O)N[C@H](C(=O)N[C@@H](C)CCC[C@@H](CO)N(C(C)C)S(=O)(=O)c1ccc(N)cc1)C(c1cccc(F)c1)c1cccc(F)c1` [Example F15, N-{(1S,5S)-5-[[(4-aminophenyl)sulfonyl](isopropyl)amino]-6-hydroxy-1-methylhexyl}-3-fluoro-β-(3-fluorophenyl)-Nα-(methoxycarbonyl)-L-phenylalaninamide] was tested. Which IC95 [1, 2] did it give?
**A.** 16 nM

**Q.** And the IC50 (wild-type HIV-1 protease; [3])?
**A.** 0.01 nM

**Q.** Which results are given for `CCN([C@H](CO)CCC[C@@H](NC(=O)[C@@H](NC(=O)OC)C(c1ccccc1)c1ccccc1)C1CC1)S(=O)(=O)c1ccc(CO)cc1` [Example I5, N-[(1R,5S)-1-cyclopropyl-5-(ethyl{[4-(hydroxymethyl)phenyl]sulfonyl}amino)-6-hydroxyhexyl]-Nα-(methoxycarbonyl)-β-phenyl-L-phenylalaninamide]?
**A.** IC95 [1, 2]: 85 nM; IC50 (wild-type HIV-1 protease; [3]): 0.011 nM

**Q.** Which IC95 [1, 2] does the source give for `CC[C@@H](CCC[C@@H](CO)N(CCC(C)C)S(=O)(=O)c1ccc(N)cc1)NC(=O)[C@@H](NC(=O)OC)C1c2ccccc2C=Cc2ccccc21` [Example F6, methyl [2-({(1S,5S)-5-[[(4-aminophenyl)sulfonyl](3-methylbutyl)amino]-1-ethyl-6-hydroxyhexyl}amino)-1-(5H-dibenzo[a,d][7]annulen-5-yl)-2-oxoethyl]carbamate] here?
**A.** 10 nM

**Q.** What about the IC50 (wild-type HIV-1 protease; [3]) of the same compound?
**A.** 0.01 nM

**Q.** Which IC95 [1, 2] does the source give for `COC(=O)N[C@H](C(=O)N[C@H](CCC[C@@H](CO)N(CC(C)C)S(=O)(=O)c1ccc(CO)cc1)C1CC1)C(c1ccccc1)c1ccccc1` [Example J22] here?
**A.** 15 nM

**Q.** And the IC50 (wild-type HIV-1 protease; [3])?
**A.** 0.032 nM

**Q.** `CCCN([C@H](CO)CCC[C@@H](NC(=O)[C@H](Cc1ccccc1Cl)NC(=O)OC)C(F)(F)F)S(=O)(=O)c1ccc(CO)cc1` [Example J43, 2-chloro-N-[(1R,5S)-6-hydroxy-5-[{[4-(hydroxymethyl)phenyl]sulfonyl}(propyl)amino]-1-(trifluoromethyl)hexyl]-Nα-(methoxycarbonyl)-L-phenylalaninamide] was tested. Which IC95 [1, 2] did it give?
**A.** 116 nM

**Q.** What about the IC50 (wild-type HIV-1 protease; [3]) of the same compound?
**A.** 0.126 nM

**Q.** `COC(=O)N[C@@H](Cc1ccccc1Cl)C(=O)N[C@H](CCC[C@@H](CO)N(C(C)C)S(=O)(=O)c1ccc(CO)cc1)C1CC1` [Example I2, 2-chloro-N-{(1R,5S)-1-cyclopropyl-6-hydroxy-5-[{[4-(hydroxymethyl)phenyl]sulfonyl}(isopropyl)amino]hexyl}-Nα-(methoxycarbonyl)-L-phenylalaninamide] was tested. Which IC95 [1, 2] did it give?
**A.** 422 nM

**Q.** What about the IC50 (wild-type HIV-1 protease; [3]) of the same compound?
**A.** 2.25 nM

**Q.** How did the IC95 [1, 2] turn out when `CN[C@H](C(=O)N[C@H](CCC[C@@H](CO)N(CCC(C)C)S(=O)(=O)c1ccc(CO)cc1)C(C)C)C(c1ccccc1)c1ccccc1` [Example J29, N-{(1R,5S)-6-hydroxy-5-[{[4-(hydroxymethyl)phenyl]sulfonyl}(3-methylbutyl)amino]-1-isopropylhexyl}-Nα-methyl-β-phenyl-L-phenylalaninamide] was run?
**A.** 16 nM

**Q.** What about the IC50 (wild-type HIV-1 protease; [3]) of the same compound?
**A.** 0.039 nM

**Q.** With “Methyl {(1S)-1-(diphenylmethyl)-2-[((5S)-6-hydroxy-2-methyl-5-{(3-methylbutyl) [(4-methylphenyl)sulfonyl]amino}hexylamino]-2-oxoethyl}carbamate [Example C1]” as the compound, how does the IC95 [1, 4] read?
**A.** 193 nM

**Q.** What about the IC50 (wild-type HIV-1 protease; [3]) of the same compound?
**A.** 0.2 nM

**Q.** How did the IC95 [1, 2] turn out when `CC[C@@H](CCC[C@@H](CO)N(C(C)C)S(=O)(=O)c1ccc(C(C)=O)cc1)NC(=O)[C@@H](NC(=O)OC)C(c1ccccc1)c1ccccc1` [Example K3, N-{(1S,5S)-5-[[(4-acetylphenyl)sulfonyl](isopropyl)amino]-1-ethyl-6-hydroxyhexyl}-Nα-(methoxycarbonyl)-β-phenyl-L-phenylalaninamide] was run?
**A.** 112 nM

**Q.** And the IC50 (wild-type HIV-1 protease; [3])?
**A.** 0.929 nM
